Assay [1] addresses T1, Insulin-degrading enzyme (Homo sapiens, UniProt P14735).
T1 sequence (P14735 whole entry): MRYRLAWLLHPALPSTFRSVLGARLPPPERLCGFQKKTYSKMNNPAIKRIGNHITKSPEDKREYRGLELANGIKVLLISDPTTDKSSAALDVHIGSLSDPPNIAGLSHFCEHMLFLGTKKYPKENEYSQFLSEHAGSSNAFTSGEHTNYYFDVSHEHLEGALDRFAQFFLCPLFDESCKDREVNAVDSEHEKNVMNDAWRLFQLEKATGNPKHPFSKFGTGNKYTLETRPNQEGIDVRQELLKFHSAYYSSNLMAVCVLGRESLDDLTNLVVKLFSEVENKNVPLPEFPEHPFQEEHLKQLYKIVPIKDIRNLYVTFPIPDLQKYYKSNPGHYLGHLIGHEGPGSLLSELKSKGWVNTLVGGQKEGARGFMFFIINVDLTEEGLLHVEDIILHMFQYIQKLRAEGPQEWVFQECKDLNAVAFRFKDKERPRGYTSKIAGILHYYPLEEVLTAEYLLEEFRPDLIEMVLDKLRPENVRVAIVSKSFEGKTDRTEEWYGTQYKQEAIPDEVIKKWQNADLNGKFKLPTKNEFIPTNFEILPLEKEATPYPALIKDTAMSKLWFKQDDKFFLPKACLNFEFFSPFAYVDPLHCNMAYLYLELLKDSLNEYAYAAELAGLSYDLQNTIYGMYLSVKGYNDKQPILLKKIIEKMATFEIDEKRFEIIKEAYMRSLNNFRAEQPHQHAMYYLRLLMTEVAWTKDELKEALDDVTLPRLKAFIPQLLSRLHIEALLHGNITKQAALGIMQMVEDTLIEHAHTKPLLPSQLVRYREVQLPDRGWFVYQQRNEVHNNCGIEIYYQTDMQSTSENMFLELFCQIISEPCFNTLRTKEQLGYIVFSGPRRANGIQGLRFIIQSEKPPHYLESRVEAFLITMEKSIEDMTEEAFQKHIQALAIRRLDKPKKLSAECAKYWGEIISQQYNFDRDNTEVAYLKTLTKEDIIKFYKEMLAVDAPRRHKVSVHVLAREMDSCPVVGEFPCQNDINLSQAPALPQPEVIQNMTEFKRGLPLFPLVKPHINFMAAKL
The experiment in a line: activators of endogenous IDE in HEK cells, dose response, cell-based, fluorescence polarization (AID 588439). In kind it is functional. On the technique in general: Polarisation of emitted light reports the rotation of a fluorescent probe.

In assay [2] the test system is HEK293. The experiment in a line: optical interference in Abeta FP readout, dose response, artefact control for IDE activator project, biochemical, fluorescence polarization (AID 588442). The following applies: Homo sapiens. Format: functional, cell-based.
The target of assay [3] is T1, Insulin-degrading enzyme. The experiment in a line: activators of recombinant IDE enzyme, dose response, counter-screen for IDE activator project, biochemical, fluorescence polarization (AID 588681).
The test system of assay [4] is HEK293. The experiment in a line: HEK cell cytotoxicity by LDH release, dose response, cytotoxicity control for IDE activator project, fluorescence, HEK cells (AID 588440).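 Note: cytotoxicity by LDH release measuring loss of membrane integrity.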 In kind it is functional, cell-based. The following applies: Homo sapiens. In general terms: LDH in the medium is a marker of cell lysis.
Assay [5] addresses Multidrug resistance protein CDR1 (Candida albicans, UniProt P43071). Description: CaCDR1 efflux pump inhibitors in yeast, dose response, S. cerevisiae AD1-8u, singleplex, Cherry Pick1 hits (AID 588606). In kind it is functional.
Assay [6] can be described thus: Luminescence Cell-Based Dose Retest to Confirm Inhibitors of Cancer Stem Cells. [Related pubchem assays (depositor defined):AID2717, AID2721]. In kind it is functional. The conditions noted are these: Homo sapiens.
The target of assay [7] is Dual specificity tyrosine-phosphorylation-regulated kinase 1A (Rattus norvegicus, UniProt Q63470). Format: biochemical, Homo sapiens.
Assay [8] addresses Protein disulfide-isomerase (Homo sapiens, UniProt P07237). Description: PDI inhibitors, insulin aggregation turbidity, dose response, biochemical, absorbance, cherry-picked samples (AID 602350). In kind it is functional.
For assay [9], the target named is T2, Sentrin-specific protease 7 (Homo sapiens, UniProt Q9BQF6).
T2 sequence (Q9BQF6 whole entry): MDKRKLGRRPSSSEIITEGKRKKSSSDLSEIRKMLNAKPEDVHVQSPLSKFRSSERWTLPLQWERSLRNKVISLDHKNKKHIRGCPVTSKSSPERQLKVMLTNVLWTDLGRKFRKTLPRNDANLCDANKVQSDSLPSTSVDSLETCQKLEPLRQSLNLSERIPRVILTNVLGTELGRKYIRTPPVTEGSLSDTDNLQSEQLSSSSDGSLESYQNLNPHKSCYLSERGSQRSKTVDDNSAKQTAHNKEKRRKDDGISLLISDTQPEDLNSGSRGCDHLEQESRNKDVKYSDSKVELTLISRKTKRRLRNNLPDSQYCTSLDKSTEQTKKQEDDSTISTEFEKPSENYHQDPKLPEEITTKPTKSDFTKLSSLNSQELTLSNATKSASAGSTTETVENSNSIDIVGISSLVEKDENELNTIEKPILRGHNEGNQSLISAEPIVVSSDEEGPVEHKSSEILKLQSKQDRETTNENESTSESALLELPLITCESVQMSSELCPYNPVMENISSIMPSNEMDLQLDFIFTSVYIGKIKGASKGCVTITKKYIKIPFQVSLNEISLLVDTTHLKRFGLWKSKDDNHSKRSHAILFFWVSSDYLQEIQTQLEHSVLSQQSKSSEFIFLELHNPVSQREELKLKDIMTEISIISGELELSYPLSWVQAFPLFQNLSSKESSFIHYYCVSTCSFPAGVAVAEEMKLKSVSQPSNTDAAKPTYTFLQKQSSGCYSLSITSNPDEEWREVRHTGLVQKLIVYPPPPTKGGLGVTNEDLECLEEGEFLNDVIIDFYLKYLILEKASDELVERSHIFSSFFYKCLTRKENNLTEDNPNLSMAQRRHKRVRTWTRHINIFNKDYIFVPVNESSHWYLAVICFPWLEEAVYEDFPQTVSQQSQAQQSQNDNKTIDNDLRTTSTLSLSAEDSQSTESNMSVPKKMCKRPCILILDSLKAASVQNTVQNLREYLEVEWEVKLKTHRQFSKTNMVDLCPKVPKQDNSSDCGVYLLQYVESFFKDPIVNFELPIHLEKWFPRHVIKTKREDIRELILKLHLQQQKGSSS
The experiment in a line: SENP7 protease inhibitors, SAR follow-up, biochemical, luminescence (AID 504497). In kind it is functional.

The target of assay [10] is T3, Sentrin-specific protease 8 (Homo sapiens, UniProt Q96LD8).
T3 sequence (Q96LD8 whole entry): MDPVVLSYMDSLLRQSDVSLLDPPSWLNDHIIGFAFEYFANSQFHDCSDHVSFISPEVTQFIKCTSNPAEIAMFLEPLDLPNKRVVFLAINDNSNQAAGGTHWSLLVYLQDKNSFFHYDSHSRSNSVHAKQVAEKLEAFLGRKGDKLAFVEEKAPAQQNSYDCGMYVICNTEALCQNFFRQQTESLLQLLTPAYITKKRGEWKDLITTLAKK
The experiment in a line: SENP8 protease inhibitors, SAR follow-up, biochemical, luminescence (AID 504501). Format: functional.

Assay [11] concerns the target T4, Sentrin-specific protease 6 (Homo sapiens, UniProt Q9GZR1).
T4 sequence (Q9GZR1 whole entry): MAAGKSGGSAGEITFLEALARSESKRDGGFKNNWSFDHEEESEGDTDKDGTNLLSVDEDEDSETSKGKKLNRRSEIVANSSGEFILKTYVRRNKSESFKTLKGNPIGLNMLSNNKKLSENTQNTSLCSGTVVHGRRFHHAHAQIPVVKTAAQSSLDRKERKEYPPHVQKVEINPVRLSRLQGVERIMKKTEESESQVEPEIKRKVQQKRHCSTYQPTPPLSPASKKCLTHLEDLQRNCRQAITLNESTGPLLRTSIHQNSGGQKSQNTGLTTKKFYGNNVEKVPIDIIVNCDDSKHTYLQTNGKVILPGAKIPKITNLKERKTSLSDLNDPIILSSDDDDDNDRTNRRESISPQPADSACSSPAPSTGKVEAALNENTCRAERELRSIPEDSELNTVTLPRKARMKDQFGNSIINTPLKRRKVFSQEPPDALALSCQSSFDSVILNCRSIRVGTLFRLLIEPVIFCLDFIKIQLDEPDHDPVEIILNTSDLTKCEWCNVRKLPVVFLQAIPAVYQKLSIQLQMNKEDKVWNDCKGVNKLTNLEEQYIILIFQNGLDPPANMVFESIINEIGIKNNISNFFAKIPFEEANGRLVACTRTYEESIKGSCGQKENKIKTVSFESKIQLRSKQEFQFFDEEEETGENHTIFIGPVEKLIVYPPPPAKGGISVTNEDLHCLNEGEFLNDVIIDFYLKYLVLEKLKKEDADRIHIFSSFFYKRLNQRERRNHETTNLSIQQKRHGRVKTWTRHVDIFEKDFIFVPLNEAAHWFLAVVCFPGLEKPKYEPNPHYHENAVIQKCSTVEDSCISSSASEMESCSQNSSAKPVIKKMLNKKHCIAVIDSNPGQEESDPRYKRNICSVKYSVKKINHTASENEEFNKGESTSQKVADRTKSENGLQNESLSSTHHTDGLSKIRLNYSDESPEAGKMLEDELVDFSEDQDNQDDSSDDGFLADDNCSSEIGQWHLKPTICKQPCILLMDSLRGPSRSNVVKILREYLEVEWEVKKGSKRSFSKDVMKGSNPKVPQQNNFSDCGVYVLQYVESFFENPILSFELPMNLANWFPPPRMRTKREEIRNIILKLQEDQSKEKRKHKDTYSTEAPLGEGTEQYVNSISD
Description: SAR Analysis of small molecule inhibitors of Sentrin-specific protease 6 (SENP6) using a Luminescent assay. [Related pubchem assays (depositor defined):AID2582, AID2599]. In kind it is functional.

The target in assay [12] is T5, Caspase-3 (Homo sapiens, UniProt P42574).
T5 sequence (P42574 whole entry): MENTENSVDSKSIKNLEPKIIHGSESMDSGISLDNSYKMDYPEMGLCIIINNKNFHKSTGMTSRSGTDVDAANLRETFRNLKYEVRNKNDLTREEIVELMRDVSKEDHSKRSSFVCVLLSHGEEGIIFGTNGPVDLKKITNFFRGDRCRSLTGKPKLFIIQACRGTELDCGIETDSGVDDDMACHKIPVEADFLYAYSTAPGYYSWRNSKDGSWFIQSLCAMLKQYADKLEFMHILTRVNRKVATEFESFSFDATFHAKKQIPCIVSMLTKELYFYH
The experiment in a line: SAR Analysis of small molecule inhibitors of Sentrin-specific proteases (SENPs) using a Caspase-3 Selectivity assay. [Related pubchem assays (depositor defined):AID2540, AID2599, AID434973, AID489001]. Format: functional.

A short description of assay [13]: HeLa 4N DNA content increase, dose response, cell-based, IC50 (AID 1117351). In kind it is functional.
Assay [14] deals with Serine/threonine-protein kinase D2 (Homo sapiens, UniProt Q9BZL6). In kind it is functional.
Serine/threonine-protein kinase D2, sequence (Q9BZL6 whole entry): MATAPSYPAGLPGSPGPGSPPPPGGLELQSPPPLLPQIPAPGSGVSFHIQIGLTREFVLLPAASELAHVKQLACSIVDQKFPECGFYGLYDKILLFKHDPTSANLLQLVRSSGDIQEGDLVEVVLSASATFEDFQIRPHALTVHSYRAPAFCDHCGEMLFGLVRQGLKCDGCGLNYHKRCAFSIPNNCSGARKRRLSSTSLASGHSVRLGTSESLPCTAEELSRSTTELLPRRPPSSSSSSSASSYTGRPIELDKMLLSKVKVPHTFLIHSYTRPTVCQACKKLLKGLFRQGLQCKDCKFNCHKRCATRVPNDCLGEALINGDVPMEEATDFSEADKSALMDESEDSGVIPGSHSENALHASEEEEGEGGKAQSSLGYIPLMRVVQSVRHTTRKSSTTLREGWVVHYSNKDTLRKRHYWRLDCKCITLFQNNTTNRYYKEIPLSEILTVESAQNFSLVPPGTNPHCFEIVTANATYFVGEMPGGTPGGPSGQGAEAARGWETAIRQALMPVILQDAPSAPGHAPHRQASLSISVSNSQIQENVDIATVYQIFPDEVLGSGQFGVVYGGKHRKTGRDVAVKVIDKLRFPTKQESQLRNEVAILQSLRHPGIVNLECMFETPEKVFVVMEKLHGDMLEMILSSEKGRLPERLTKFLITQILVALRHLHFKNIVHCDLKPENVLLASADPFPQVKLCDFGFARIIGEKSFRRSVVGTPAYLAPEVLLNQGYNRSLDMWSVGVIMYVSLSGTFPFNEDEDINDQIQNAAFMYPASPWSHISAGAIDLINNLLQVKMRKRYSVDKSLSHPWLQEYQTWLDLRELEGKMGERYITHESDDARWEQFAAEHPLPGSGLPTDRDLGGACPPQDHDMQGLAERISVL
The target of assay [15] is Serine/threonine-protein kinase TAO1 (Homo sapiens, UniProt Q7L7X3). Format: functional.
Serine/threonine-protein kinase TAO1, sequence (Q7L7X3 whole entry): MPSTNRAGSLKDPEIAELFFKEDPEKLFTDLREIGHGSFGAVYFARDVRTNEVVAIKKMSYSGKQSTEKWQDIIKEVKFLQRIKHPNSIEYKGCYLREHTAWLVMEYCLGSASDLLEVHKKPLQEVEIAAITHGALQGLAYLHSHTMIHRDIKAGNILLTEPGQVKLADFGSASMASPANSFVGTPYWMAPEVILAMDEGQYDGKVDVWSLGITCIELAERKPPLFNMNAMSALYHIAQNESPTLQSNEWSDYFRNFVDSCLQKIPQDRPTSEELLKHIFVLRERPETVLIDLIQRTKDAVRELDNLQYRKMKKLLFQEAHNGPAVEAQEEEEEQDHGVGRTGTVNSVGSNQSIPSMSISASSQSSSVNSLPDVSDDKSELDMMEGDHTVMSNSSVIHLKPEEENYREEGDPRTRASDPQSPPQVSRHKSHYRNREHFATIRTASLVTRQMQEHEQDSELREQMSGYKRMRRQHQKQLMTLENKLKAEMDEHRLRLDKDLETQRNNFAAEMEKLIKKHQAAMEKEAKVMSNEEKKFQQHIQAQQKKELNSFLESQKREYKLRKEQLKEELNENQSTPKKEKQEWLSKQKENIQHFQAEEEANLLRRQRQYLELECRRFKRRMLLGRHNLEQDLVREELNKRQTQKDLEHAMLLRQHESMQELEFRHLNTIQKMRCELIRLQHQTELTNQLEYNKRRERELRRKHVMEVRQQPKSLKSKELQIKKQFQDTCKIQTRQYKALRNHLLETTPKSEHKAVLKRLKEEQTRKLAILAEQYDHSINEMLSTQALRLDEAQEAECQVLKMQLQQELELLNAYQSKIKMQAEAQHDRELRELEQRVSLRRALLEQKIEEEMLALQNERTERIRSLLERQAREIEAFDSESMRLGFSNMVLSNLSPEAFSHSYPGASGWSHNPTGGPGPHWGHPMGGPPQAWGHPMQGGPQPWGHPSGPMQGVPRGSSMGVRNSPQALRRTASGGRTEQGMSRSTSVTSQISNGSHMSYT
The nature of assay [16]: HeLa 2N DNA content increase, dose response, cell-based, IC50 (AID 1117349). In kind it is functional.

The source made the active and inactive calls.

Protein disulfide-isomerase, sequence (P07237 whole entry): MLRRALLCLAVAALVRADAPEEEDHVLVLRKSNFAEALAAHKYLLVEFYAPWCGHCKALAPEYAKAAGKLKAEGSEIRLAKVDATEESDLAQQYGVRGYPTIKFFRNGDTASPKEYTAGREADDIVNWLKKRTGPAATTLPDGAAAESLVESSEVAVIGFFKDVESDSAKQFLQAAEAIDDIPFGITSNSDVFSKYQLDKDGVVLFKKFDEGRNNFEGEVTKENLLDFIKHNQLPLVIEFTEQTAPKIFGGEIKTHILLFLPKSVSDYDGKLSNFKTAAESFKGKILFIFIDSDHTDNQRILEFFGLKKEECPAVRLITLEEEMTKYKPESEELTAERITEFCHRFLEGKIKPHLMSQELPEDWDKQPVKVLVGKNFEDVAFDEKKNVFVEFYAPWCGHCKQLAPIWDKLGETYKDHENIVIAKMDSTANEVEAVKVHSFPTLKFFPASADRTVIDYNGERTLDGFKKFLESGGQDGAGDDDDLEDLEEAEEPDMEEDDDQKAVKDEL
Multidrug resistance protein CDR1, sequence (P43071 whole entry, looked up): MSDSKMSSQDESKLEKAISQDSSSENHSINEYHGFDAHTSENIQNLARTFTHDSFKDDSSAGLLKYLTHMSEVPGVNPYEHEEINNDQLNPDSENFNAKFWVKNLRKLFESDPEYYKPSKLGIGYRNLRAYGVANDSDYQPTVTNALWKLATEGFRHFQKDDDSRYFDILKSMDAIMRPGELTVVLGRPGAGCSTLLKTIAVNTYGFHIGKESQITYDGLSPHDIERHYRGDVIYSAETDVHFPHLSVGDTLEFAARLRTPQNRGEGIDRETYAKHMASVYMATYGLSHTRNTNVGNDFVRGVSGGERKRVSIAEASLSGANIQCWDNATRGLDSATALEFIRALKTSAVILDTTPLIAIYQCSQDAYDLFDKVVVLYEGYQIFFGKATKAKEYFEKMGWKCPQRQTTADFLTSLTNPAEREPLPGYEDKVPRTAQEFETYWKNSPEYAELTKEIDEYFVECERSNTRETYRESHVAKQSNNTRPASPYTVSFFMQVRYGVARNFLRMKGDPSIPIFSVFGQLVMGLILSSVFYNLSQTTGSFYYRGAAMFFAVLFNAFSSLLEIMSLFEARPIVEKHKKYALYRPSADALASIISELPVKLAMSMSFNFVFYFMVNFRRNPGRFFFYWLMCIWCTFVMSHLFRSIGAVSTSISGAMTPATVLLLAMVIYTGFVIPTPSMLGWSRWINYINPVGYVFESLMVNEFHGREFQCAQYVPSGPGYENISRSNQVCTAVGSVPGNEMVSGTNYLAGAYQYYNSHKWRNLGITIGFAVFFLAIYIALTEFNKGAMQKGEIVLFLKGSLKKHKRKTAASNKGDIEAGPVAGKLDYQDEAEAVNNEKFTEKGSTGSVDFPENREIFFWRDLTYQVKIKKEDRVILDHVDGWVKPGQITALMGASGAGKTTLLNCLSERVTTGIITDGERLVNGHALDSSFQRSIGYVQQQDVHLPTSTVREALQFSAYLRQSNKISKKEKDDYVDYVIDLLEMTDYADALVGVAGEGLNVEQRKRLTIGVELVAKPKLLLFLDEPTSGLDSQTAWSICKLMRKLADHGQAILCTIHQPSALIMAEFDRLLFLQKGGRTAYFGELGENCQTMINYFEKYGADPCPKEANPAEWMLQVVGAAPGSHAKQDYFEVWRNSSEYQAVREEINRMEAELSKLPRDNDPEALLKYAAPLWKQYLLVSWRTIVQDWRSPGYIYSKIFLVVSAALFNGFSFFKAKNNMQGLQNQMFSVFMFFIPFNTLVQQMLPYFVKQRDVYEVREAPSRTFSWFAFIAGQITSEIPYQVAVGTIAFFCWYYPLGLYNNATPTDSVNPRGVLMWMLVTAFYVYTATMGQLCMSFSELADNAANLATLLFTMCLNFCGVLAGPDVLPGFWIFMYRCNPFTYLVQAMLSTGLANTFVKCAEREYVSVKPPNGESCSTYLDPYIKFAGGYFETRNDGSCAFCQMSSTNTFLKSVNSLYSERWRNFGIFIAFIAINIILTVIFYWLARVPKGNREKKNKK

As to `CCc1ccc(-c2nc(C[S+]([O-])CC(=O)O)c(C)o2)cc1` (stereo not given), the EC50 (usually the concentration needed to bring the measured effect to its halfway point) in assay [1] is > 54.7 µM (inactive); in assay [2], > 55.9 µM (inactive); in assay [3], > 54.7 µM (inactive). Further, the IC50 – broadly, the concentration that gives 50% inhibition – in assay [4] was > 89.2 µM (inactive).
Take `CCOc1ccc(NC(=O)CSc2nnc(Cc3cccn3C)n2-c2ccc(F)cc2)cc1`: in assay [5], the EC50 was 0.013 µM (active).
Take `Cc1cccc(N2CCN(C(S)=Nc3ccc4nc(N5CCN(C)CC5)cc(C)c4c3)CC2C)c1` (stereo not given): the EC50 in assay [1], in [2] and in assay [3] was > 54.7 µM (inactive) in each case. Also, in [4], the IC50 is 8.41 µM (active). In addition, in [6], the AC50 – broadly, the midpoint of the concentration-response curve, whichever way the signal moves – was 7.58 µM (active).
Turning to `C[C@@H]1O[C@@H](OC[C@@H]2O[C@H](Oc3c(-c4ccc(O)cc4)oc4cc(O)cc(O)c4c3=O)[C@@H](O)[C@H](O)[C@H]2O)[C@H](O)[C@H](O)[C@H]1O`, the concentration at half-maximal activity (AC50) in assay [7] was 6.66 µM (active); in [8], 3.51 µM (active).
Turning to `Cc1cc(NS(=O)(=O)c2ccc(F)c(F)c2)cc2sc(NC(=O)c3ccccc3)nc12`, the concentration for half-maximal inhibition (IC50) in assay [9] is 34.3 µM (active); in assay [10], > 99 µM (inactive); in assay [11] it was > 99 µM (inactive); in [12] it was > 99 µM (inactive).
As for `Clc1ccc(Nc2nnc(Cc3ccncc3)c3ccccc23)cc1` [VATALANIB], the IC50 in assay [13] and in assay [16] was > 10 µM (inactive) throughout. For the same compound, the values for the Ki in assay [14] and in [15] were > 10 µM (inactive) and > 7.94 µM (inactive), respectively.

Values taken from ChEMBL document CHEMBL1201862, “PubChem BioAssay data set” (2004).
